Experiments:
[1] = target: Serine/threonine-protein kinase TAO1 (Homo sapiens) (UniProt Q7L7X3); conditions: Compound concentration 1000.0 nM
[2] = target: Activin receptor type-1B (Homo sapiens) (UniProt P36896); conditions: Compound concentration 1000.0 nM
[3] = target: STE20-like serine/threonine-protein kinase (Homo sapiens) (UniProt Q9H2G2); conditions: Compound concentration 1000.0 nM
[4] = target: Serine/threonine-protein kinase Nek7 (Homo sapiens) (UniProt Q8TDX7); conditions: Compound concentration 1000.0 nM
[5] = system: Leucine-rich repeat serine/threonine-protein kinase 2 (Homo sapiens), Q5S007 [G2019S]; conditions: Compound concentration 1000.0 nM
[6] = system: ALK tyrosine kinase receptor (Homo sapiens), Q9UM73 [L1196M]; conditions: Compound concentration 1000.0 nM
[7] = target: 5-hydroxytryptamine receptor 7 (Homo sapiens) (UniProt P34969); conditions: Compound concentration 10.0 uM
[8] = target: Tyrosine-protein kinase Fer (Homo sapiens) (UniProt P16591); conditions: Compound concentration 1000.0 nM
[9] = system: Receptor-type tyrosine-protein kinase FLT3 (Homo sapiens), P36888 [UNDEFINED MUTATION]; conditions: Compound concentration 1000.0 nM
[10] = target: Tyrosine-protein kinase JAK3 (Homo sapiens) (UniProt P52333); conditions: Compound concentration 1000.0 nM
Sequence of Tyrosine-protein kinase JAK3 (Homo sapiens) (P52333 whole entry): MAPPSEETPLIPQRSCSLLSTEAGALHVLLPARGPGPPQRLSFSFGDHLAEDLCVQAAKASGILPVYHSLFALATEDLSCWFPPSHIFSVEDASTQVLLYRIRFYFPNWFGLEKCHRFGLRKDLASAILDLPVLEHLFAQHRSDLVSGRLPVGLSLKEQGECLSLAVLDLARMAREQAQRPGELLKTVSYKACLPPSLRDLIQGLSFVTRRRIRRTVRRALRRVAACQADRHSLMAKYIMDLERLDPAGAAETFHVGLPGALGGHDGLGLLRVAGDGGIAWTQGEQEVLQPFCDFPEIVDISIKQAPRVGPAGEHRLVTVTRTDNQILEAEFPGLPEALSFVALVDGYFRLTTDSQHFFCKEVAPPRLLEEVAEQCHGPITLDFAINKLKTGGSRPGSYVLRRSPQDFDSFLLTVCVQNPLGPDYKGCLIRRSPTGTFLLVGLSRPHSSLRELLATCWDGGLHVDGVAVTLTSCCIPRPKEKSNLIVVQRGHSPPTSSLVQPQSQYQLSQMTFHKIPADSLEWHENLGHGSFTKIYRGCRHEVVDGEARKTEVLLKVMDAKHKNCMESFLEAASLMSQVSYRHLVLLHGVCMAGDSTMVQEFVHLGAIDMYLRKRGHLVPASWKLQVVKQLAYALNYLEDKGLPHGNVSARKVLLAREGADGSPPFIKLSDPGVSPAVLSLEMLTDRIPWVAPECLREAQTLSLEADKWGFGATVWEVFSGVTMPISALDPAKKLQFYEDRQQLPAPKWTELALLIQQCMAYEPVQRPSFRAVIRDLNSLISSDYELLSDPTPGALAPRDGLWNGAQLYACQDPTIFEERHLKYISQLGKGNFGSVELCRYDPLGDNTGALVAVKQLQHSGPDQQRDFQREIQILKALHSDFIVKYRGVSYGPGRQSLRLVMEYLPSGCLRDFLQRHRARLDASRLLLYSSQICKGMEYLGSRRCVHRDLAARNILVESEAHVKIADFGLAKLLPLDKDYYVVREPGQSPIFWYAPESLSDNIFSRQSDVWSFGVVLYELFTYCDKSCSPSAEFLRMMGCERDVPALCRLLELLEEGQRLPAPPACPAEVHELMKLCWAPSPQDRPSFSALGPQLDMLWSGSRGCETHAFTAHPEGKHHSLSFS

[11] = target: Calcium/calmodulin-dependent protein kinase type 1G (Homo sapiens) (UniProt Q96NX5); conditions: Compound concentration 1000.0 nM
Sequence of Calcium/calmodulin-dependent protein kinase type 1G (Homo sapiens) (Q96NX5 whole entry): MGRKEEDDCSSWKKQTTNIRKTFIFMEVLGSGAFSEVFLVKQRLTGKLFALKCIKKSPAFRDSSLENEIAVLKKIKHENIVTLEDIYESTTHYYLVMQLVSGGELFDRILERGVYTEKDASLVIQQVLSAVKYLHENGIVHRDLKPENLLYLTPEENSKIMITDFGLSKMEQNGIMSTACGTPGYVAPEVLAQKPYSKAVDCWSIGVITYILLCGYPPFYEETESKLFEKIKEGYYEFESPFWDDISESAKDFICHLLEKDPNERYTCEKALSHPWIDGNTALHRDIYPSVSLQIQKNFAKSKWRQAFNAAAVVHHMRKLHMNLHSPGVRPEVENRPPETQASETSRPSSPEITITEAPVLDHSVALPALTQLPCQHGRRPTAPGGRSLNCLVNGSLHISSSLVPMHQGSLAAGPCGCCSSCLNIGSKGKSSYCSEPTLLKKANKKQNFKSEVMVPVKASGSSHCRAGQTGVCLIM

[12] = target: Dual specificity tyrosine-phosphorylation-regulated kinase 1B (Homo sapiens) (UniProt Q9Y463); conditions: Compound concentration 1000.0 nM
[13] = target: Activin receptor type-2A (Homo sapiens) (UniProt P27037); conditions: Compound concentration 1000.0 nM
[14] = target: Tyrosine-protein kinase JAK2 (Homo sapiens) (UniProt O60674); conditions: Compound concentration 1000.0 nM
[15] = target: Mitogen-activated protein kinase kinase kinase 2 (Homo sapiens) (UniProt Q9Y2U5); conditions: Compound concentration 1000.0 nM
[16] = target: Ephrin type-A receptor 4 (Homo sapiens) (UniProt P54764); conditions: Compound concentration 1000.0 nM
[17] = target: Alpha-2C adrenergic receptor (Homo sapiens) (UniProt P18825); conditions: Compound concentration 10.0 uM
[18] = target: Serine/threonine-protein kinase pim-2 (Homo sapiens) (UniProt Q9P1W9); conditions: Compound concentration 1000.0 nM
Sequence of Serine/threonine-protein kinase pim-2 (Homo sapiens) (Q9P1W9 whole entry, looked up): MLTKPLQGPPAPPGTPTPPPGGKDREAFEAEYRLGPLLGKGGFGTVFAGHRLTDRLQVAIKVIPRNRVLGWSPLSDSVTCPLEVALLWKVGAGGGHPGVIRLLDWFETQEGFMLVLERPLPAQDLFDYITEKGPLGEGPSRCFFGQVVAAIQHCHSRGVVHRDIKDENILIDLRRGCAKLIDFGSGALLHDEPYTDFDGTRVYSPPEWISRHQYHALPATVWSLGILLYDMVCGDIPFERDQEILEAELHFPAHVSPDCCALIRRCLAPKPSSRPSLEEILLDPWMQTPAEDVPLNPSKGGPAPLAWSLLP

[19] = target: Mitogen-activated protein kinase kinase kinase 9 (Homo sapiens) (UniProt P80192); conditions: Compound concentration 1000.0 nM
[20] = target: Interferon-induced, double-stranded RNA-activated protein kinase (Homo sapiens) (UniProt P19525); conditions: Compound concentration 1000.0 nM
[21] = target: Protein kinase C theta type (Homo sapiens) (UniProt Q04759); conditions: Compound concentration 1000.0 nM
[22] = target: Ribosomal protein S6 kinase alpha-4 (Homo sapiens) (UniProt O75676); conditions: Compound concentration 1000.0 nM
Sequence of Ribosomal protein S6 kinase alpha-4 (Homo sapiens) (O75676 whole entry, looked up): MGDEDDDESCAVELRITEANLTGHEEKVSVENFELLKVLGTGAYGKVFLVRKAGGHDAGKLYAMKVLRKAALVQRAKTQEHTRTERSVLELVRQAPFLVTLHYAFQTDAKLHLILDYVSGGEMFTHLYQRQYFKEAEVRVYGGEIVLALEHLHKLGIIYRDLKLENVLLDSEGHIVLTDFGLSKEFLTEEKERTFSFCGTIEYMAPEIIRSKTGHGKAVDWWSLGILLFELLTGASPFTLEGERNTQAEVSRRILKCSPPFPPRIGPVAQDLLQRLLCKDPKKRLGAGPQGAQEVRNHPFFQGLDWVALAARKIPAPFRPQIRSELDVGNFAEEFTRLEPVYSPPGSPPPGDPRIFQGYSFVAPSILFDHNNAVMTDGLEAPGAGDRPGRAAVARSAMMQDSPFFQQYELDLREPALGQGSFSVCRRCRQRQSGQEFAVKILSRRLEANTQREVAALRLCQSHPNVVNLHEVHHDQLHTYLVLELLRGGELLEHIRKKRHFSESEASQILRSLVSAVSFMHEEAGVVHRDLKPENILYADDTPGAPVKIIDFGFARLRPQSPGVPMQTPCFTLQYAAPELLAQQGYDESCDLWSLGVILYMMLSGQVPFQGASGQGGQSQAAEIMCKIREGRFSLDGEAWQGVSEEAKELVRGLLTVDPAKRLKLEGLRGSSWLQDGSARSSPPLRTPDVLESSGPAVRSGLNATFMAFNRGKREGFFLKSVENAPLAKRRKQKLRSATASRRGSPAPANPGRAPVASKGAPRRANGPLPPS

[23] = target: cGMP-dependent protein kinase 1 (Homo sapiens) (UniProt Q13976); conditions: Compound concentration 1000.0 nM
[24] = system: Mast/stem cell growth factor receptor Kit (Homo sapiens), P10721 [D816V]; conditions: Compound concentration 1000.0 nM
[25] = target: Tyrosine-protein kinase JAK1 (Homo sapiens) (UniProt P23458); conditions: Compound concentration 1000.0 nM
[26] = target: Serine/threonine-protein kinase DCLK2 (Homo sapiens) (UniProt Q8N568); conditions: Compound concentration 1000.0 nM
[27] = target: Fibroblast growth factor receptor 4 (Homo sapiens) (UniProt P22455); conditions: Compound concentration 1000.0 nM
[28] = target: Macrophage colony-stimulating factor 1 receptor (Homo sapiens) (UniProt P07333); conditions: Compound concentration 1000.0 nM
[29] = target: Cyclin-dependent kinase 3 (Homo sapiens) (UniProt Q00526); conditions: Compound concentration 1000.0 nM
[30] = system: Tyrosine-protein kinase ABL1 (Homo sapiens), P00519 [M351T]; conditions: Compound concentration 1000.0 nM
[31] = target: Homeodomain-interacting protein kinase 3 (Homo sapiens) (UniProt Q9H422); conditions: Compound concentration 1000.0 nM
[32] = target: Leucine-rich repeat serine/threonine-protein kinase 2 (Homo sapiens) (UniProt Q5S007); conditions: Compound concentration 1000.0 nM
[33] = target: Phosphatidylinositol 4,5-bisphosphate 3-kinase catalytic subunit beta isoform (Homo sapiens) (UniProt P42338); conditions: Compound concentration 1000.0 nM
[34] = target: Serine/threonine-protein kinase PRP4 homolog (Homo sapiens) (UniProt Q13523); conditions: Compound concentration 1000.0 nM
[35] = target: Ephrin type-B receptor 2 (Homo sapiens) (UniProt P29323); conditions: Compound concentration 1000.0 nM
[36] = system: ALK tyrosine kinase receptor (Homo sapiens), Q9UM73 [C1156Y]; conditions: Compound concentration 1000.0 nM
[37] = target: Serine/threonine-protein kinase Nek4 (Homo sapiens) (UniProt P51957); conditions: Compound concentration 1000.0 nM
[38] = target: Serine/threonine-protein kinase Chk1 (Homo sapiens) (UniProt O14757); conditions: Compound concentration 1000.0 nM
[39] = target: Serine/threonine-protein kinase PAK 6 (Homo sapiens) (UniProt Q9NQU5); conditions: Compound concentration 1000.0 nM
[40] = target: Vascular endothelial growth factor receptor 1 (Homo sapiens) (UniProt P17948); conditions: Compound concentration 1000.0 nM
[41] = target: Aurora kinase A (Homo sapiens) (UniProt O14965); conditions: Compound concentration 1000.0 nM
[42] = system: Tyrosine-protein kinase ABL1 (Homo sapiens), P00519 [F317I]; conditions: Compound concentration 1000.0 nM
[43] = target: BMP-2-inducible protein kinase (Homo sapiens) (UniProt Q9NSY1); conditions: Compound concentration 1000.0 nM
[44] = target: Ribosomal protein S6 kinase alpha-5 (Homo sapiens) (UniProt O75582); conditions: Compound concentration 1000.0 nM
Sequence of Ribosomal protein S6 kinase alpha-5 (Homo sapiens) (O75582 whole entry, looked up): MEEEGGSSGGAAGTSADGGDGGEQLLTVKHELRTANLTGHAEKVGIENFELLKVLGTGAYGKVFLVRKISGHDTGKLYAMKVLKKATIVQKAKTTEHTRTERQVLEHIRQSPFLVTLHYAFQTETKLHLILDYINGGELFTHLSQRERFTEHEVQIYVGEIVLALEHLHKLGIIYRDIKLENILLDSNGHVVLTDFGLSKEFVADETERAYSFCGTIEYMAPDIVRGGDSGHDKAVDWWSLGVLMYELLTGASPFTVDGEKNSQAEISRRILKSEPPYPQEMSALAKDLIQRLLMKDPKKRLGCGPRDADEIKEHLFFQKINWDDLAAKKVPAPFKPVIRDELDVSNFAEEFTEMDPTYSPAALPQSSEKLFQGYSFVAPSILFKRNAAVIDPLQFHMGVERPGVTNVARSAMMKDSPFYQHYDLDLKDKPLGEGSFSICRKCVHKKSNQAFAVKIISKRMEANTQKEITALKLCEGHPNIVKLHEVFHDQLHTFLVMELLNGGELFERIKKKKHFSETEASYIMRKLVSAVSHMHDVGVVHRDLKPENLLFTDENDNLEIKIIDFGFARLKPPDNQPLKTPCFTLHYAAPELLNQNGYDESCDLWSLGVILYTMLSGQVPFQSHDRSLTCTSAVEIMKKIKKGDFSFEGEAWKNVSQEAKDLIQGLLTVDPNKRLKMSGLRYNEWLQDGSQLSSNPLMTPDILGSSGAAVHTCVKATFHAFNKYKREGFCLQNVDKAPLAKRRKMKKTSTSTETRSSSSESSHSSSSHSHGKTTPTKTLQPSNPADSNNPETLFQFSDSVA

[45] = target: Hepatocyte growth factor receptor (Homo sapiens) (UniProt P08581); conditions: Compound concentration 1000.0 nM

Sequence of Serine/threonine-protein kinase TAO1 (Homo sapiens) (Q7L7X3 whole entry): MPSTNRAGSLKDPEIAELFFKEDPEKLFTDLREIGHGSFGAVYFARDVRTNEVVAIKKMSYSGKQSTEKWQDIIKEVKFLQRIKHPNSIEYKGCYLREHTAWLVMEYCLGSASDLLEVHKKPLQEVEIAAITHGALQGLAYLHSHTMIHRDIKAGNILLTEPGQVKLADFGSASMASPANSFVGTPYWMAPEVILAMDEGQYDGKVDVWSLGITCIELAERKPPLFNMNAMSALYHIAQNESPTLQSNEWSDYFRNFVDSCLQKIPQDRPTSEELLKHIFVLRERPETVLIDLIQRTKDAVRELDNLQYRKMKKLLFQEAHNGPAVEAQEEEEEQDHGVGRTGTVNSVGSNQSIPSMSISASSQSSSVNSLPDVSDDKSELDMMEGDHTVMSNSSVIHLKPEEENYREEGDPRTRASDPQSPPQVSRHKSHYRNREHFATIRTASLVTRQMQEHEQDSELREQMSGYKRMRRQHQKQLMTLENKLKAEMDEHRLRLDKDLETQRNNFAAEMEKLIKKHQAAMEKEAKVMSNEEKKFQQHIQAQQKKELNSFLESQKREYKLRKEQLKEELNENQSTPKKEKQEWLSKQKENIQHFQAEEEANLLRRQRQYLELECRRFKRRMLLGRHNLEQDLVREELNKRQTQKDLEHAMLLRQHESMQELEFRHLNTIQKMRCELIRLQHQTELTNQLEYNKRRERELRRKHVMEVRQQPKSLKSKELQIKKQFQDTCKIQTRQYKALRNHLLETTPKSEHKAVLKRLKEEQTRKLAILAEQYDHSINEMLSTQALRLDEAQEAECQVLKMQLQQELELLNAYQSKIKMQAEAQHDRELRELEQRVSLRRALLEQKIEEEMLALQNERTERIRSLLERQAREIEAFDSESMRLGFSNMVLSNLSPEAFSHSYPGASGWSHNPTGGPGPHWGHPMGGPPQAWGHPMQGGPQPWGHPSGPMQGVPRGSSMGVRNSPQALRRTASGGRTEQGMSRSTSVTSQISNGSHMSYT
Sequence of Activin receptor type-1B (Homo sapiens) (P36896 whole entry): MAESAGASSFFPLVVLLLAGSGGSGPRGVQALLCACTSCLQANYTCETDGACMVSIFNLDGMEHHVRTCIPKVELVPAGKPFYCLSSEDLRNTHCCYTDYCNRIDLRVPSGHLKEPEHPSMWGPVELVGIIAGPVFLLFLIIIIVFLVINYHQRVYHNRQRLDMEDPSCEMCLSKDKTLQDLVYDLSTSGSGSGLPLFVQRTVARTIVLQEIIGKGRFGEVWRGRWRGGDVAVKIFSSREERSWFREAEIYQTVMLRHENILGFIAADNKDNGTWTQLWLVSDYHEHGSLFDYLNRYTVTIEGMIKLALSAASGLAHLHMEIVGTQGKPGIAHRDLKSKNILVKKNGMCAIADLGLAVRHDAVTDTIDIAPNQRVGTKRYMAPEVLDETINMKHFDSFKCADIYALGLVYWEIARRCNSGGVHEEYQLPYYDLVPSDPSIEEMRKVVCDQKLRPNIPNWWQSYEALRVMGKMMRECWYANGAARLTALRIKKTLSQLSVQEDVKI

In the case of `Cc1nc(Cc2cccc(C(F)(F)F)c2)sc1-c1ccc(C(N)=O)nc1` [TP-024n], the residual activity [1] is reported as 81%, the residual activity [2] is reported as 75% and the residual activity [3] is reported as 100%. The residual activity [4] was 98%, the residual activity [5] was 82% and the residual activity [6] was 100%. It also gave an inhibition [7] of 16.4%, a residual activity [8] of 100% and a residual activity [9] of 100%. For the same molecule, the residual activity [10] was 100%, the residual activity [11] was 99% and the residual activity [12] was 100%. The residual activity [13] was 85%, the residual activity [14] was 100% and the residual activity [15] was 100%. It also gave a residual activity [16] of 100%, an inhibition [17] of 8.38% and a residual activity [18] of 64%. For the same molecule, the residual activity [19] was 100%, the residual activity [20] was 49% and the residual activity [21] was 94%. It also gave a residual activity [22] of 100%, a residual activity [23] of 87% and a residual activity [24] of 81%. It also gave a residual activity [25] of 92%, a residual activity [26] of 100% and a residual activity [27] of 100%. For the same molecule, the residual activity [28] was 85%, the residual activity [29] was 88% and the residual activity [30] was 100%. It also gave a residual activity [31] of 100%, a residual activity [32] of 92% and a residual activity [33] of 83%. The residual activity [34] was 70%, the residual activity [35] was 86% and the residual activity [36] was 68%. It also gave a residual activity [37] of 100%, a residual activity [38] of 100% and a residual activity [39] of 92%. It also gave a residual activity [40] of 100%, a residual activity [41] of 100% and a residual activity [42] of 83%. It also gave a residual activity [43] of 100%, a residual activity [44] of 83% and a residual activity [45] of 63%.

In the case of `Cc1cc(-n2nc(Cc3cc(F)cc(C(F)(F)F)c3)nc2C)ccc1C(N)=O` [TP-024], the residual activity [1] is reported as 91%, the residual activity [2] is reported as 93% and the residual activity [3] is reported as 92%. The residual activity [4] was 97%, the residual activity [5] was 100% and the residual activity [6] was 100%. For the same molecule, the inhibition [7] was 21.4%, the residual activity [8] was 79% and the residual activity [9] was 100%. The residual activity [10] was 100%, the residual activity [11] was 100% and the residual activity [12] was 100%. It also gave a residual activity [13] of 100%, a residual activity [14] of 100% and a residual activity [15] of 100%. For the same molecule, the residual activity [16] was 96%, the inhibition [17] was 9.76% and the residual activity [18] was 83%. The residual activity [19] was 100%, the residual activity [20] was 62% and the residual activity [21] was 100%. The residual activity [22] was 100%, the residual activity [23] was 100% and the residual activity [24] was 100%. The residual activity [25] was 100%, the residual activity [26] was 100% and the residual activity [27] was 100%. The residual activity [28] was 100%, the residual activity [29] was 100% and the residual activity [30] was 100%. The residual activity [31] was 100%, the residual activity [32] was 99% and the residual activity [33] was 85%. It also gave a residual activity [34] of 54%, a residual activity [35] of 100% and a residual activity [36] of 100%. It also gave a residual activity [37] of 100%, a residual activity [38] of 100% and a residual activity [39] of 100%. The residual activity [40] was 100%, the residual activity [41] was 99% and the residual activity [42] was 85%. For the same molecule, the residual activity [43] was 100%, the residual activity [44] was 88% and the residual activity [45] was 81%.

— ChEMBL document CHEMBL4507305, “Data for DCP probe TP-024” (2021)
